What was measured:
ykt6 = test: Ykt6 membrane shift analysis (cytosol/membrane fractions) in FTI-treated cultures; assay type: cell-based, human; conditions: SH-SY5Y wt a-syn cells and A53T iPSn; 5 nM, 5 days
Procedure: (§1) FIGS. 5A, 5B, 5C, 5D, 5E, 5F, and 5G. Reducing farnesyl-ykt6 enhances SNARE assembly and improves the lysosomal targeting of GCase. 5A) Ykt6 membrane shift analysis of SH-SY5Y cells expressing GFP-ykt6 wt or CS (n=3). 5B) Co-IP of GFP-ykt6 and bet1 in A53T iPSn (n=3). 5C) Ykt6 membrane shift analysis in FTI-treated SH-SY5Y wt a-syn cells or A53T iPSn (5 nM farnesyltransferase inhibitors (FTI) LNK-754 (FTI-1) or LNK-3248 (FTI-2) for 5 days) (n=4). Sec22b was measured to assess specificity. 5D) SEC/western blot of FTI-1 treated SH-SY5Y cells. Quantification is shown below. 5E) Co-IP of GFP-ykt6 wt or mutant ykt6-SS, (cannot be palmitoylated or farnesylated) in FTI-treated SHSY5Y cells (5 nM LNK-754, 5d) (n=2). 5F) Immunofluorescence of GCase and LAMP2A in FTI-treated H4 a-syn cells transfected with scrambled (scrb) or ykt6 shRNA (n=3). Scale bar=10 um. 5G) GCase maturation analysis in FTI-treated A53T iPSn by endo H (n=3). Values are the mean+/−SEM, *p<0.05.
Separation of lysates into cytosol and membrane fractions. […] Fractions were then analyzed by western blot analysis as described below. The samples were not analyzed in a blinded manner.
Treatment of cultures with farnesyltransferase inhibitors. […] Cultures were harvested and analyzed as described in the above sections.

GCase = test: Analysis of post-ER GCase (endo H resistance) in FTI-treated cultures; assay type: cell-based, human; conditions: A53T iPSn and SHSY5Y cells
Procedure: as §1, with “5F) Immunofluorescence of GCase and LAMP2A in FTI-treated H4 a-syn cells transfected with scrambled (scrb) or ykt6 shRNA (n=3). Scale bar=10 um. 5G) GCase maturation analysis in FTI-treated A53T iPSn by endo H (n=3). Values are the mean+/−SEM, *p<0.05.” left out
FIGS. 14A, 14B, 14C, 14D, 14E, 14F, and 14G. […] 14A) Farnesylation of ykt6 was measured in SH-SY5Y cells expressing GFP-ykt6. […] Biotin was detected with streptavidin-conjugated IRDye800, and normalized to total levels of GFP-ykt6. […] Ykt6 complex levels eluting at ca. 120A were quantified on the right (n=2). […] 14E) Raw quantification data of LAMP2A immunofluorescence intensity of individual cells from H4 cells treated with FTI, +/−ykt6 KD. […] For all quantifications, values are the mean+/−SEM, *p<0.05.
Analysis of post-ER GCase. […] Endo H resistant bands migrating at 62-64 kDa were measured as post-ER forms of GCase, and normalized to GAPDH levels. […]

## C#Cc1cccc(-c2cc(=O)n(C)c3ccc([C@](O)(c4ccc(Cl)cc4)c4cncn4C)cc23)c1 [LNK-754]
ykt6
  membrane association of ykt6: increased membrane association of ykt6
  sec22b levels (specificity): did not change
GCase
  mature, endo H-resistant GCase: significantly elevated
